Source: patent US20090252814A1, “USE OF XENON FOR ORGAN PROTECTION” (priority 2005, published 2009)

What was measured:
[1] = test system: brain; settings: administered 4 hours after hypoxic-ischaemic injury, neonatal rats; cited from earlier work
[2] = in combination with oxygen; cited from earlier work
[3] = test system: HIF-1α gene; assay: HIF-1α RNA expression in adult mice brains (RT-PCR); type: in vivo, C57BL/6J mice; settings: 75% xenon and 25% oxygen 2 h, harvested 0-72 h after
Protocol: Studies were performed on 8- to 12-wk-old C57BL/6J mice (Jackson Labs, Bar Harbor, Me.) that were fed a standard laboratory diet. All procedures were approved by the Home Office.
The mice were exposed to 75% xenon and 25% oxygen for two hours. The xenon gas was administered to the mice by inhalation. The brains of said adult mice were then harvested as described below between 0-72 hours after exposure to the xenon gas.
Total RNA was extracted as described in Example 4. In addition RT-PCR was carried out as described in Example 4. The primers used for the PCR amplifications were: […]

[4] = test system: main organs; settings: xenon exposure (Natale et al 1998); cited from earlier work
[5] = test system: brain; assay: Cortical infarction in neonatal rat brain, xenon and cooling; type: in vivo, Sprague Dawley rats; parameters: Total area of infraction: unit not given here
Protocol: Sprague Dawley, 7 day neonatal rats were used. All procedures were approved by the Home Office.
The neonatal rats were exposed to: • (i) 20% xenon alone for 2 hours; • (ii) 35° C. hypothermia for 90 minutes; or • (iii) Hypothermia (35° C.) for 90 minutes before, 1 hour later, 20% xenon for 2 hours.
The gas was administered by gas inhalation.
The brains of said rats were then harvested at a set time after exposure to the xenon gas. A total of 11 rats were examined for each treatment group.
The brains were assessed for cortical infarction in the affected hemisphere.
The “intervention” rats under went an ischaemic injury to the brain.

[6] = test system: HIF-1α; assay: HIF-1α expression in the kidney after exposure to xenon (western blot); type: in vivo, C57BL/6J mice; settings: adult mice, 75% xenon 2 h by inhalation, kidneys harvested 0-24 h after
Protocol: Studies were performed on adult 8- to 12-wk-old C57BL/6J mice (Jackson Labs, Bar Harbor, Me.) that were fed a standard laboratory diet. All procedures were approved by the Home Office.
The mice were exposed to 75% xenon for two hours. The xenon gas was administered to the mice by inhalation. The kidneys of said mice were then harvested as described below between 0-24 hours after exposure to the xenon gas.
Once sacrificed, the kidneys were harvested and frozen at −80° C. […] Protein concentration in the supernatant was determined by DC (detergent-compatible) protein assay (Bio-Rad, Herts, UK), based on the Lowry method. […]
After washing in TBS-T the membrane was incubated with the appropriate goat-derived horseradish peroxidase-conjugated secondary antibody at room temperature for 1½ hours to detect the primary antibodies. The immunoreactive bands were visualised with the enhanced chemiluminescence system and detected on X-ray film. The results were quantified by densitometry as an x-fold increase relative to the control without xenon—the amount of protein applied was normalised by the densitometry of the tubulin (which was unaltered by the intervention itself). […]

[7] = test system: VEGF; assay: VEGF expression in adult mice brains (western blot); type: in vivo, C57BL/6J mice; settings: 75% xenon and 25% oxygen 2 h, harvested 0-48 h after
Protocol: Studies were performed on 8 to 12-wk-old C57BL/6J mice (Jackson Labs, Bar Harbor, Me.) that were fed a standard laboratory diet. All procedures were approved by the Home Office.
The mice were exposed to 75% xenon and 25% oxygen for two hours. The xenon gas was administered to the mice by inhalation. The brains of said adult mice were then harvested as described below between 0-48 hours after exposure to the xenon gas.
The tissues were homogenised and western blots of adult mice brain samples were carried out as described in Example 1.
The primary antibodies were anti-α-tubulin antibody, and monoclonal mouse anti-VEGF antibody.

In the case of `[Xe]` [xenon], the “neuroprotection by combination of xenon and hypothermia” value [1] is listed as “synergistic neuroprotection”, the “concentrations exhibiting anaesthetic effects” value [2] is listed as 10-70 vol. % and the “transcription of the HIF-1α gene” value [3] is listed as “does not modulate”. The “toxic effects on main organs” value [4] was “does not induce significant toxic effects”, the “Total area of infraction” value ([5]; Control rats, 20% xenon alone column) was 88.3 (±4.1) and the “Total area of infraction” value ([5]; Control rats, combination column) was 92.7 (±6.7). The “Total area of infraction” value ([5]; Intervention rats (ischaemic injury), 20% xenon alone for 2 hours) was 85.3 (±8.9), the “Total area of infraction” value ([5]; Intervention rats (ischaemic injury), combination: hypothermia 35° C. 90 min, 1 hour later 20% xenon 2 hours) was 74.1 (±7.8) and the “interaction of xenon and cooling on area of infraction” value ([5]; hypothermia followed by xenon, administered asynchronously) was “synergy”. The “HIF-1α expression in the kidneys” value [6] was “time-dependent increase” and the “expression of VEGF” value [7] was “time-dependent increase”.
